Patent US6444685B1, “N-(4-sulfonylaryl)Cyclylamine 2-hydroxyethylamines as beta-3 adrenergic receptor agonists” (Wyeth, priority 2000, dated 2002)
Where a name gives a salt, the structure may show the parent alone.

Legend:
[1] = biological target: T1, human β3 adrenergic receptor (Homo sapiens, UniProt P13945); experiment: cAMP accumulation (SPA) in CHO cells transfected with human β3 adrenergic receptor; assay type: cell-based; conditions: for EC50: CHO cells expressing human β3-AR, cAMP, 30 min incubation, 10^−9 M to 10^−5 M, read-out: beta-3 EC50; for beta-3 (IA) maximal response relative to isoproterenol: IA = % activity compound / % activity isoproterenol at 10^−5 M, CHO human β3 cells
T1 construct: Full length β3 AR clones (402 amino acids) containing the last 6 amino acids of hβ3— AR are prepared; expressed in transfected cells; host or cells: CHO cells
In short: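 CHO cells expressing human β3-AR (70–110 fmol/mg protein) treated with compound at 10^−9 to 10^−5 M in DMEM with 250 μM IBMX and 1 mM ascorbic acid, 30 min, 37 °C. cAMP measured by SPA; EC50 derived, and intrinsic activity expressed relative to the maximal response of 10^−5 M isoproterenol.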

[2] = biological target: T2, human β2-adrenergic receptor (Homo sapiens, UniProt P07550); experiment: cAMP accumulation (SPA) in CHO cells transfected with human β2 adrenergic receptor; assay type: cell-based; conditions: for beta-2 (IA) maximal response relative to isoproterenol: IA = % activity compound / % activity isoproterenol at 10^−5 M, CHO human β2 cells
T2 construct: expressed in transfected cells; host or cells: CHO cells
In short: (§1)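 CHO cell clones expressing 70–110 fmol/mg protein of receptor were pre-incubated 30 min at 37 °C, then treated 15 min at 37 °C with compound (10^−8 to 10^−4 M) in DMEM with 250 μM IBMX and 1 mM ascorbic acid. cAMP was read by SPA after acid stop. EC50 and IA were expressed relative to maximal 10^−5 M isoproterenol response.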

[3] = biological target: T3, human β1-adrenergic receptor (Homo sapiens, UniProt P08588); experiment: cAMP accumulation (SPA) in CHO cells transfected with human β1 adrenergic receptor; assay type: cell-based; conditions: for EC50: CHO cells transfected with human β1-AR, cAMP, 15 min incubation, 10^−8 to 10^−4 M, read-out: beta-1 EC50; for beta-1 (IA) maximal response relative to isoproterenol: IA = % activity compound / % activity isoproterenol at 10^−5 M, CHO human β1 cells
T3 construct: expressed in transfected cells; host or cells: CHO cells
In short: as §1

T2 sequence (P07550 whole entry): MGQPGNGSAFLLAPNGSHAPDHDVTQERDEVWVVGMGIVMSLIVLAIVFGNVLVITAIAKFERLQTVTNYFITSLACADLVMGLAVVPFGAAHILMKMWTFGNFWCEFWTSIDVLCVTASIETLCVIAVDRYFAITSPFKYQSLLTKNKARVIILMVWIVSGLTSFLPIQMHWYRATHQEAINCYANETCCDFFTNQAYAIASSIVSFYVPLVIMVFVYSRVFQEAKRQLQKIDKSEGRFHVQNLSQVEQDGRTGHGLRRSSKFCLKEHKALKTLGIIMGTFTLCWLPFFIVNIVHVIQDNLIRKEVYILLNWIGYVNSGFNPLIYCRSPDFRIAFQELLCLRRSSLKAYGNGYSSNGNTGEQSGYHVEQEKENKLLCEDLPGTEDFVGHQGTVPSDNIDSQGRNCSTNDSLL
T1 sequence (P13945 whole entry): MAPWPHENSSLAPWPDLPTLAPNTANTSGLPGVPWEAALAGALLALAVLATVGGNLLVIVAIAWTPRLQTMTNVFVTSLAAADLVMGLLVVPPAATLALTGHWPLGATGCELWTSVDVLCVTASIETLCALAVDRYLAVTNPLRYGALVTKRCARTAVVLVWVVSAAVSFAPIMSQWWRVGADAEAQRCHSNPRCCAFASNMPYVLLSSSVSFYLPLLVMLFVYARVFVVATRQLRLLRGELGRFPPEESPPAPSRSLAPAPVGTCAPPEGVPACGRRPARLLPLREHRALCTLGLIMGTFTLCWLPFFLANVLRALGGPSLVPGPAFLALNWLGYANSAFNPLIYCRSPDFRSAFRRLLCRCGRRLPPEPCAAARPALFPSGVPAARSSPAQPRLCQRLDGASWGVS
T3 sequence (P08588 whole entry): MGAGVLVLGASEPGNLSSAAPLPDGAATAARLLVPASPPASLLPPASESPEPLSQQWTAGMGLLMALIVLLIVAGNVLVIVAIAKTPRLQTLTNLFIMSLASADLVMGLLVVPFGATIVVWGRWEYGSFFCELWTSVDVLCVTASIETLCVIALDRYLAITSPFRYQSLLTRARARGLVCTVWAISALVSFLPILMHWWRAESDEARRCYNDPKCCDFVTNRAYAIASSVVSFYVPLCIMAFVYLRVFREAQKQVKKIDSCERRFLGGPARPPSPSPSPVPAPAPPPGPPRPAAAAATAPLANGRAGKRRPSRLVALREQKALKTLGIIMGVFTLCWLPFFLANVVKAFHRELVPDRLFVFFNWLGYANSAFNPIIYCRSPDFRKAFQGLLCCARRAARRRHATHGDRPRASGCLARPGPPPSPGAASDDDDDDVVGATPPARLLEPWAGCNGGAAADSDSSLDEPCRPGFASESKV

SMILES	melting point	EC50 [1]	beta-3 (IA) maximal response relative to isoproterenol [1]	EC50 ([2]; CHO cells transfected with human β2-AR, cAMP, 15 min incubation, 10^−8 to 10^−4 M, read-out: beta-2 EC50)	beta-2 (IA) maximal response relative to isoproterenol [2]	EC50 [3]	beta-1 (IA) maximal response relative to isoproterenol [3]
CS(=O)(=O)Nc1cc([C@@H](O)CNC2CCN(c3ccc(S(=O)(=O)NCC(=O)O)cc3)CC2)ccc1O (as salt: salt) [Example 53, 2-{[(4-{4-[((2R)-2-hydroxy-2-{4-hydroxy-3-[(methylsulfonyl)amino]phenyl}ethyl)amino]-1-piperidinyl}phenyl)sulfonyl]amino}acetic Acid]	170 to 172 °C	–	–	–	–	–	–
COC(=O)N(CC(=O)O)S(=O)(=O)c1ccc(N2CCC(NC[C@H](O)c3ccc(O)c(NS(C)(=O)=O)c3)CC2)cc1 (as salt: salt) [Example 60, [[(4-{4-[((2R)-2-Hydroxy-2-{4-hydroxy-3-[(methylsulfonyl)amino]phenyl}-ethyl)amino]piperidin-1-yl}phenyl)sulfonyl](methoxycarbonyl)amino]acetic Acid]	60 °C	–	–	–	–	–	–
CS(=O)(=O)Nc1cc([C@@H](O)CNC2CCN(c3ccc(S(=O)(=O)N(CC(=O)O)Cc4cc(F)ccc4F)cc3)CC2)ccc1O (as salt: salt) [Example 63, 2-{(2,5-Difluorobenzyl)[(4-{4-[((2R)-2-hydroxy-2-{4-hydroxy-3-[(methylsulfonyl)-amino]phenyl}ethyl)amino]-1-piperidinyl}phenyl)sulfonyl]amino}acetic acid]	80 to 82 °C	–	–	–	–	–	–
CS(=O)(=O)Nc1cc([C@@H](O)CNC2CCN(c3ccc(S(=O)(=O)N4CCN(CC(=O)O)CC4)cc3)CC2)ccc1O (as salt: sodium) [Example 65]	131 °C (dec.)	–	–	–	–	–	–
COc1ccc(NS(=O)(=O)c2ccc(N3CCC(NC[C@H](O)COc4ccc(OCc5ccccc5)cc4)CC3)cc2)cc1OC [Example 9, 4-{4-[(2S)-3-(4-Benzyloxy-phenoxy)-2-hydroxy-propylamino]-piperidin-1-yl}-N-(3,4-dimethoxy-phenyl)-benzenesulfonamide]	113 to 121 °C	–	–	–	–	–	–
COc1ccc(NS(=O)(=O)c2ccc(N3CCC(NC[C@H](O)COc4ccc(O)cc4)CC3)cc2)cc1OC [Example 11, N-(3,4-Dimethoxy-phenyl)-4-{4-[(2S)-2-hydroxy-3-(4-hydroxy-phenoxy)-propylamino]-piperidin-1-yl}-benzenesulfonamide]	101 to 106 °C	330 nM	(0.83)	–	–	–	–
CCCCNS(=O)(=O)c1ccc(N2CCC(NC[C@H](O)COc3cccc4[nH]c(=O)[nH]c34)CC2)cc1 [Example 12, N-Butyl-4-{4-[(2S)-2-hydroxy-3-(2-oxo-2,3-dihydro-1H-benzoimidazol-4-yloxy)-propylamino]-piperidin-1-yl}-benzenesulfonamide]	69 to 75 °C	10 nM	(1)	–	–	–	–
CCCCNS(=O)(=O)c1ccc(N2CCC(NC[C@H](O)COc3cccc4[nH]c5ccccc5c34)CC2)cc1 [Example 13, N-Butyl-4-{4-[(2S)-3-(9H-carbazol-4-yloxy)-2-hydroxy-propylamino]-piperidin-1-yl}-benzenesulfonamide]	166 to 179 °C	50 nM	(0.7)	–	–	–	–
CC(C)OC(=O)C1CCCN1S(=O)(=O)c1ccc(N2CCC(NCC(O)COc3cccc4[nH]c(=O)[nH]c34)CC2)cc1 (stereo not drawn) [Example 16, 1-(4-{4-[2-Hydroxy-3-(2-oxo-2,3-dihydro-1H-benzoimidazol-4-yloxy)-propylamino]-piperidin-1-yl}-benzenesulfonyl)-pyrrolidine-2-carboxylic Acid Isopropyl Ester]	74 to 83 °C	3 nM	(0.86)	–	–	–	–
O=C1CN(S(=O)(=O)c2ccc(N3CCC(NC[C@H](O)COc4cccc5[nH]c(=O)[nH]c45)CC3)cc2)C(=O)N1 [Example 49, 1-(4-{4-[(2S)-2-Hydroxy-3-(2-oxo-2,3-dihydro-1H-benzoimidazol-4-yloxy)-propylamino]-piperidin-1-yl}-benzenesulfonyl)-imidazolidine-2,4-dione]	230 °C (dec.)	9 nM	(0.96)	–	–	–	–

Continued, values first:

melting point	EC50 [1]	beta-3 (IA) maximal response relative to isoproterenol [1]	EC50 ([2]; CHO cells transfected with human β2-AR, cAMP, 15 min incubation, 10^−8 to 10^−4 M, read-out: beta-2 EC50)	beta-2 (IA) maximal response relative to isoproterenol [2]	EC50 [3]	beta-1 (IA) maximal response relative to isoproterenol [3]	SMILES
163 to 166 °C	–	–	–	–	–	–	CS(=O)(=O)Nc1cc([C@@H](O)CNC2CCN(c3ccc(S(=O)(=O)N(CC(=O)O)CC(=O)O)cc3)CC2)ccc1O (as salt: salt) [Example 55, 2-((Carboxymethyl)[(4-{4-[((2R)-2-hydroxy-2-{4-hydroxy-3-[(methylsulfonyl)amino]phenyl)ethyl)amino]-1-piperidinyl}phenyl)sulfonyl]amino}acetic Acid]
205 to 218 °C	16 nM	(0.91)	610 nM	(0.28)	3600 nM	(0.41)	COc1ccc(NS(=O)(=O)c2ccc(N3CCC(NCC(O)c4ccc(O)c(NS(C)(=O)=O)c4)CC3)cc2)cc1OC (stereo not drawn) [Example 8, N-(3,4-Dimethoxy-phenyl)-4-{4-[2-hydroxy-2-(4-hydroxy-3-methanesulfonylamino-phenyl)-ethylamino]-piperidin-1-yl}-benzenesulfonamide]
58 to 64 °C	100 nM	(0.45)	–	–	–	–	COc1ccc(NS(=O)(=O)c2ccc(N3CCC(NC[C@H](O)COc4cccc5[nH]c6ccccc6c45)CC3)cc2)cc1OC [Example 10, 4-{4-[(2S)-3-(9H-Carbazol-4-yloxy)-2-hydroxy-propylamino]-piperidin-1-yl}-N-(3,4-dimethoxy-phenyl)-benzenesulfonamide]
36 to 39 °C	28 nM	(0.81)	–	–	–	–	CNC(=O)C1CCCN1S(=O)(=O)c1ccc(N2CCC(NC[C@H](O)COc3cccc4[nH]c(=O)[nH]c34)CC2)cc1 (stereo partly drawn) [Example 17, 1-(4-{4-[(2S)-2-Hydroxy-3-(2-oxo-2,3-dihydro-1H-benzoimidazol-4-yloxy)-propylamino]-piperidin-1-yl}-benzenesulfonyl)-pyrrolidine-2-carboxylic Acid Methylamide]
130 to 132 °C	9 nM	(1.1)	–	–	–	–	Cc1ccc(S(=O)(=O)c2ccc(N3CCC(NC[C@H](O)COc4cccc5[nH]c(=O)[nH]c45)CC3)cc2)cc1 [Example 46, 4-((2S)-2-Hydroxy-3-{1-[4-(toluene-4-sulfonyl)-phenyl]-piperidin-4-ylamino}-propoxy)-1,3-dihydro-benzoimidazol-2-one]
–	5 nM	(0.96)	–	(0.17)	1000 nM	(0.48)	CC(C)(C)OC(=O)CN(Cc1cc(F)ccc1F)S(=O)(=O)c1ccc(N2CCC(NC[C@H](O)c3ccc(O)c(NS(C)(=O)=O)c3)CC2)cc1 [Example 67, tert-Butyl {(2,5-difuorobenzyl)[(4-{4-[((2R)-2-hydroxy-2-{4-hydroxy-3-[(methylsulfonyl)amino]phenyl}ethyl)amino]piperidin-1-yl}phenyl)sulfonyl]-amino}acetate]
